Drawing on patent US20180243317A1, “COMPOSITIONS COMPRISING A PI3K INHIBITOR AND AN HDAC INHIBITOR” (KARUS THERAPEUTICS LTD, priority 2015, published 2018), this text covers IC50 for 26 compounds.

The target in experiment [1] is T1, Recombinant human HDAC6 (Homo sapiens, UniProt Q9UBN7).
T1 construct: GST (N); made in house; host or cells: Sf9 insect cells (baculovirus)
T1 sequence (Q9UBN7 1-1215): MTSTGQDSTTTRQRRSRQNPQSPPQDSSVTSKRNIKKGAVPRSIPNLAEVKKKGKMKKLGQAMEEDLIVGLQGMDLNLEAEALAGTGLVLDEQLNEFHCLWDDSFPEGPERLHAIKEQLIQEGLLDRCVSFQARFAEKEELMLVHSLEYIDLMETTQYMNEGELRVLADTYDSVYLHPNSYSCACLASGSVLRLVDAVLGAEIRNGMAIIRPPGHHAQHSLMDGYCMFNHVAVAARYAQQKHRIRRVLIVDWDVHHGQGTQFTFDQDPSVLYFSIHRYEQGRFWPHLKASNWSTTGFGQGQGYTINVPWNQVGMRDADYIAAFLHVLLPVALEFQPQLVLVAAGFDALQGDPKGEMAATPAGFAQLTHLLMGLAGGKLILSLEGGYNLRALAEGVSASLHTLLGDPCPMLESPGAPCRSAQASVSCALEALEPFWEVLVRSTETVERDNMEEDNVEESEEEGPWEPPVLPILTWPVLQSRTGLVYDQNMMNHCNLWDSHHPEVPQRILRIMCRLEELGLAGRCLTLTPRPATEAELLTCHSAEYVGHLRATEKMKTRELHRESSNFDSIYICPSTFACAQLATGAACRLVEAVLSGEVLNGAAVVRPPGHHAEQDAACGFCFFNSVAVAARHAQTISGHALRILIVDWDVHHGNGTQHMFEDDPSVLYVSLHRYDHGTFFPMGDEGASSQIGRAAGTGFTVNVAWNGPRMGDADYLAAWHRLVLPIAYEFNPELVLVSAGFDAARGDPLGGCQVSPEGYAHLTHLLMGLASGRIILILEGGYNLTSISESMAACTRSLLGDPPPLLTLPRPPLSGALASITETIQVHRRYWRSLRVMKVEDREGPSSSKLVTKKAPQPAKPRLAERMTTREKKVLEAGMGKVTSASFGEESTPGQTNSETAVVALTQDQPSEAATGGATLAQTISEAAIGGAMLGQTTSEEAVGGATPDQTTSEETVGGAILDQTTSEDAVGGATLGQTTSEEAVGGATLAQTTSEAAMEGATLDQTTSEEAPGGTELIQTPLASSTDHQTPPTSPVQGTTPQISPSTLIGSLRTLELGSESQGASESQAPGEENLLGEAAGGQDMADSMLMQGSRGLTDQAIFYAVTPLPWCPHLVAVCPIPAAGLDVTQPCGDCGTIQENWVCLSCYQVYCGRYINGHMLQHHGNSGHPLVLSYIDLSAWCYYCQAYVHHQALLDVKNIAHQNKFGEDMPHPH
As to the kind of experiment: HDAC biochemical assay with acetylated AMC-labeled peptide substrate. The conditions noted are these: read-out: IC50 HDAC 6. How it is done: (§1) Activity against all zinc-dependent HDACs 1 to 11 was assessed by using an acetylated AMC-labeled peptide substrate. The substrate RHKKAc was used for all class I and IIb HDACs; for HDAC8, the substrate used was RHKAcKAc. […] All assays were based on the AMC-labeled substrate and developer combination.
(§2) The protocol involved a two-step reaction: first, the substrate with the acetylated lysine side chain is incubated with a sample containing HDAC activity, to produce the deacetylated products, which are then digested in the second step by the addition of developer to produce the fluorescent signal proportional to the amount of deacetylated substrates.
Human HDAC5 (GenBank Accession No. NM_005474), full length with N-terminal GST tag, MW=150 kDa, expressed in baculovirus expression system. Recombinant human HDAC6 (GenBank Accession No. BC069243), full length, MW=180 kDa, was expressed by baculovirus in Sf9 insect cells using an N-terminal GST tag.
(§3) Before use, 1 mg/mL BSA and DMSO are added.
(§4) Incubate for 2 hours at 30° C.
(§5) Fluorescence background signal is then subtracted from compound data signal.
(§6) Stage 1: Deacetylation of substrate by incubation of HDAC enzymes with compounds
(§7) Stage 2: Development by addition of Developer to digest the deacetylated substrate, and generate the fluorescent color; Detection: 360/460 Ex/Em

Experiment [2] has as its target T2, Human HDAC1 (Homo sapiens, UniProt Q13547).
T2 construct: full length with C-terminal His-tag and C-terminal FLAG-tag; His-tag (C); FLAG-tag (C); made in house; host or cells: baculovirus expression system
Described as above. Conditions: read-out: IC50 HDAC 1. The protocol: as §1, §2
Human HDAC1 (GenBank Accession No. NM_004964), full length with C-terminal His-tag and C-terminal FLAG-tag, MW=56 kDa, expressed in baculovirus expression system.
as §3, §4, §5, §6, §7

T2 sequence (Q13547 whole entry): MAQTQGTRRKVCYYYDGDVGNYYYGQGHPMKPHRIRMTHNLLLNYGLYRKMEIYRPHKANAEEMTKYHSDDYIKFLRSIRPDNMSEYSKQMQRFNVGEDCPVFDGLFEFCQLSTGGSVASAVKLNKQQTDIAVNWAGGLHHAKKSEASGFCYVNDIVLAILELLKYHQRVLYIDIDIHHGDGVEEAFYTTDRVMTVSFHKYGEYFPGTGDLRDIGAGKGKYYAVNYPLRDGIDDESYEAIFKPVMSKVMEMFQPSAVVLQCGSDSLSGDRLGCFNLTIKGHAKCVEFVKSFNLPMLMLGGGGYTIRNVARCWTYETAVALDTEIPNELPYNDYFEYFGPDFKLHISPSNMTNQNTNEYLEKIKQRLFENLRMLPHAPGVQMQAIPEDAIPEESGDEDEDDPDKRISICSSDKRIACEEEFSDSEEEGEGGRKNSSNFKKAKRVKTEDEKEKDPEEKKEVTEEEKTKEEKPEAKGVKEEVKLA

Broadly, the IC50 is the concentration at which inhibition is half-maximal. Regarding `COc1ccc(N(Cc2ccc(C(=O)NO)cc2)c2ccc(N3CCOCC3)cn2)nc1` [Example AA, N-Hydroxy-4-(((5-methoxypyridin-2-yl)(5-morpholinopyridin-2-yl)amino)methyl)benzamide], the IC50 was not above 500 nM in experiment [1] and 1000 to 10000 nM in experiment [2].

As to `O=C(NO)c1ccc(CN(c2ccccn2)c2nccc3sccc23)cc1` [Example BB, N-Hydroxy-4-((pyridin-2-yl(thieno[3,2-c]pyridin-4-yl)amino)methyl)benzamide], the IC50 in experiment [1] is not above 500 nM; in experiment [2] it was 1000 to 10000 nM.

For `Cc1cccc(N(Cc2ccc(C(=O)NO)cc2)c2ccc(N3CCOCC3)cn2)n1` [Example CC, N-Hydroxy-4-(((6-methylpyridin-2-yl)(5-morpholinopyridin-2-yl)amino)methyl)benzamide], the IC50 in experiment [1] was 500 to 1000 nM; in experiment [2] it was more than 10000 nM.

As for `O=C(NO)c1ccc(CN(c2ccncn2)c2cnccn2)cc1` [Example DD, N-Hydroxy-4-{[(pyrazin-2-yl)(pyrimidin-4-yl)amino]methyl}benzamide], the IC50 in experiment [1] is not above 500 nM; in experiment [2], 1000 to 10000 nM.

For the compound `O=C(NO)c1ccc(CN(c2ccncn2)c2cnccn2)c(F)c1` [Example EE], the IC50 in experiment [1] was not above 500 nM; in experiment [2] it was 1000 to 10000 nM.

For `O=C(NO)c1ccc(CN(c2ccncn2)c2cnccn2)nc1` [Example FF, N-Hydroxy-6-{[(pyrazin-2-yl)(pyrimidin-4-yl)amino]methyl}pyridine-3-carboxamide], the results for the IC50 in experiment [1] and in experiment [2] were not above 500 nM and more than 10000 nM, respectively.

For the compound `Cc1nnc(N(Cc2ccc(C(=O)NO)cc2)c2ccccn2)s1` [Example H, N-Hydroxy-4-(((5-methyl-1,3,4-thiadiazol-2-yl)(pyridin-2-yl)amino)methyl)benzamide], the figures for the IC50 in experiment [1] and in experiment [2] were not above 500 nM and more than 10000 nM, respectively.

On to `O=C(NO)c1ccc(CN(c2cnccn2)c2cnccn2)c(F)c1` [Example HH, 4-{[Bis(pyrazin-2-yl)amino]methyl}-3-fluoro-N-hydroxybenzamide], for which the 50% inhibitory concentration (IC50) in experiment [1] is not above 500 nM; in experiment [2] it was 1000 to 10000 nM.

In the case of `O=C(NO)c1ccc(CN(c2ccccn2)c2nc3ccccc3o2)cc1` [Example I, 4-((Benzo[d]oxazol-2-yl(pyridin-2-yl)amino)methyl)-N-hydroxybenzamide], the figures for the IC50 in experiment [1] and in experiment [2] were not above 500 nM and 1000 to 10000 nM, respectively.

Take `O=C(NO)c1ccc(CN(c2cnccn2)c2cnccn2)nc1` [Example II, 6-{[Bis(pyrazin-2-yl)amino]methyl}-N-hydroxypyridine-3-carboxamide]: the 50% inhibitory concentration (IC50) in experiment [1] is not above 500 nM; in experiment [2], 1000 to 10000 nM.

For `Cn1c(N(Cc2ccc(C(=O)NO)cc2)c2ccccn2)nc2ccccc21` [Example J, N-Hydroxy-4-(((1-methyl-1H-benzo[d]imidazol-2-yl)(pyridin-2-yl)amino)methyl)benzamide], the IC50 in experiment [1] is not above 500 nM; in experiment [2], more than 10000 nM.

Consider `COc1cccnc1N(Cc1ccc(C(=O)NO)cc1)c1cnccn1` [Example JJ, N-Hydroxy-4-{[(3-methoxypyridin-2-yl)(pyrazin-2-yl)amino]methyl}benzamide], for which the results for the IC50 in experiment [1] and in experiment [2] were not above 500 nM and 1000 to 10000 nM, respectively.

For `O=C(NO)c1ccc(CN(c2ccccn2)c2ncns2)cc1` [Example K, N-Hydroxy-4-((pyridin-2-yl(1,2,4-thiadiazol-5-yl)amino)methyl)benzamide], the IC50 in experiment [1] was not above 500 nM; in experiment [2], more than 10000 nM.

For the compound `COc1cccnc1N(Cc1ccc(C(=O)NO)cc1F)c1cnccn1` [Example KK, 3-Fluoro-N-hydroxy-4-{[(3-methoxypyridin-2-yl)(pyrazin-2-yl)amino]methyl}benzamide], the results for the 50% inhibitory concentration (IC50) in experiment [1] and in experiment [2] were not above 500 nM and 1000 to 10000 nM, respectively.

For `O=C(NO)c1ccc(CN(c2ccc(F)cn2)c2cnccn2)cc1` [Example L, 4-(((5-Fluoropyridin-2-yl)(pyrazin-2-yl)amino)methyl)-N-hydroxybenzamide], the IC50 in experiment [1] is not above 500 nM; in experiment [2] it was more than 10000 nM.

For `COc1cccnc1N(Cc1ccc(C(=O)NO)cn1)c1cnccn1` [Example LL, N-Hydroxy-6-{[(3-methoxypyridin-2-yl)(pyrazin-2-yl)amino]methyl}pyridine-3-carboxamide], the IC50 was not above 500 nM in experiment [1] and more than 10000 nM in experiment [2].

For `Cc1noc(N(Cc2ccc(C(=O)NO)cc2)c2ccc(F)cn2)n1` [Example M, 4-(((5-Fluoropyridin-2-yl)(3-methyl-1,2,4-oxadiazol-5-yl)amino)methyl)-N-hydroxybenzamide], the IC50 in experiment [1] is not above 500 nM; in experiment [2], more than 10000 nM.

For the compound `O=C(NO)c1ccc(CN(c2cnccn2)c2cccnn2)cc1` [Example MM, N-Hydroxy-4-{[(pyrazin-2-yl)(pyridazin-3-yl)amino]methyl}benzamide], the IC50 in experiment [1] was not above 500 nM; in experiment [2] it was more than 10000 nM.

For `Cn1c(N(Cc2ccc(C(=O)NO)cc2)c2ccc(F)cn2)nc2ccccc21` [Example N, 4-(((5-Fluoropyridin-2-yl)(1-methyl-1H-benzo[d]imidazol-2-yl)amino)methyl)-N-hydroxybenzamide], the values for the IC50 in experiment [1] and in experiment [2] were not above 500 nM and more than 10000 nM, respectively.

Consider `O=C(NO)c1ccc(CN(c2cnccn2)c2cccnn2)c(F)c1` [Example NN, 3-Fluoro-N-hydroxy-4-{[(pyrazin-2-yl)(pyridazin-3-yl)amino]methyl}benzamide], for which the concentration for half-maximal inhibition (IC50) in experiment [1] was not above 500 nM; in experiment [2], more than 10000 nM.

Regarding `Cn1ccc(N(Cc2ccc(C(=O)NO)cc2)c2ccc(F)cn2)n1` [Example O, 4-(((5-Fluoropyridin-2-yl)(1-methyl-1H-pyrazol-3-yl)amino)methyl)-N-hydroxybenzamide], the IC50 was not above 500 nM in experiment [1] and more than 10000 nM in experiment [2].

Consider `Cc1nsc(N(Cc2ccc(C(=O)NO)cc2)c2cnccn2)n1` [Example OO, N-Hydroxy-4-{[(3-methyl-1,2,4-thiadiazol-5-yl)(pyrazin-2-yl)amino]methyl}benzamide], for which the results for the IC50 in experiment [1] and in experiment [2] were not above 500 nM and 1000 to 10000 nM, respectively.

`O=C(NO)c1ccc(CN(c2ccc(F)cn2)c2nc3ccccc3o2)cc1` [Example P, 4-((Benzo[d]oxazol-2-yl(5-fluoropyridin-2-yl)amino)methyl)-N-hydroxybenzamide]: the values for the IC50 in experiment [1] and in experiment [2] were not above 500 nM and more than 10000 nM, respectively.

On to `COc1ccnc(N(Cc2ccc(C(=O)NO)cc2)c2cnccn2)c1` [Example PP, N-Hydroxy-4-{[(4-methoxypyridin-2-yl)(pyrazin-2-yl)amino]methyl}benzamide], for which the concentration for half-maximal inhibition (IC50) in experiment [1] is not above 500 nM; in experiment [2] it was 1000 to 10000 nM.

For `Cn1ccc(N(Cc2ccc(C(=O)NO)cc2)c2cc(-c3ccc(F)cc3)ccn2)n1` [Example Q, 4-(((4-(4-Fluorophenyl)pyridin-2-yl)(1-methyl-1H-pyrazol-3-yl)amino)methyl)-N-hydroxybenzamide], the IC50 in experiment [1] was not above 500 nM; in experiment [2], 1000 to 10000 nM.

Regarding `O=C(NO)c1ccc(CN(c2ccccn2)c2nc3ccccc3s2)cc1` [Example V, 4-((Benzo[d]thiazol-2-yl(pyridin-2-yl)amino)methyl)-N-hydroxybenzamide], the IC50 in experiment [1] is not above 500 nM.
